# Assay results published in ChEMBL document CHEMBL4325862, “Identification of novel quinazoline derivatives as potent antiplasmodial agents” (Eur J Med Chem, 2019).
# How the values were obtained:
# [1] = Selectivity index, ratio of IC50 for mouse spleen cells to IC50 for asynchronous form of Plasmodium falciparum 3D7 infected in human erythrocytes; format: toxicity, cell-based; details: read-out: Ratio IC50
# Plasmodium falciparum [2] = assay: Antiplasmodial activity against Plasmodium falciparum Dd2 infected in human erythrocytes assessed as reduction in [3H]-hypoxanthine incorporation measured after 48 hrs by microbeta liquid scintillation counting method; format: functional, organism-based
# Histone deacetylase 4 = Histone deacetylase 4 (Homo sapiens, UniProt P56524); assay: Inhibition of recombinant human HDAC4 using Boc-Lys(trifluoroacetyl)-AMC as substrate by homogeneous fluorescence release assay
# Plasmodium falciparum [3] = assay: Antiplasmodial activity against asynchronous form of Plasmodium falciparum 3D7 infected in human erythrocytes assessed as parasite growth inhibition at 10 uM after 48 hrs by SYBR green1 staining based flow cytometry relative to control; format: functional; details: 3D7, 48 h
# Plasmodium falciparum [4] = assay: Antiplasmodial activity against asynchronous form of Plasmodium falciparum W2 infected in human erythrocytes assessed as parasite growth inhibition after 48 hrs by SYBR green1 staining based flow cytometry; format: functional, organism-based; details: W2, 48 h
# [5] = Cytotoxicity against mouse spleen cells; format: cell-based
# Plasmodium falciparum [6] = assay: Antiplasmodial activity against asynchronous form of Plasmodium falciparum 3D7 infected in human erythrocytes assessed as parasite growth inhibition after 48 hrs by SYBR green1 staining based flow cytometry; format: functional, organism-based; details: 3D7, 48 h
# Histone deacetylase 1 = Histone deacetylase 1 (Homo sapiens, UniProt Q13547); assay: Inhibition of recombinant human HDAC1 using RHK-K(Ac) as substrate by homogeneous fluorescence release assay
# [7] = molecular target: T1, Protein deacetylase HDAC6 (Homo sapiens, UniProt Q9UBN7); assay: Inhibition of recombinant human HDAC6 using RHK-K(Ac) as substrate by homogeneous fluorescence release assay
# T1 sequence (Q9UBN7 whole entry): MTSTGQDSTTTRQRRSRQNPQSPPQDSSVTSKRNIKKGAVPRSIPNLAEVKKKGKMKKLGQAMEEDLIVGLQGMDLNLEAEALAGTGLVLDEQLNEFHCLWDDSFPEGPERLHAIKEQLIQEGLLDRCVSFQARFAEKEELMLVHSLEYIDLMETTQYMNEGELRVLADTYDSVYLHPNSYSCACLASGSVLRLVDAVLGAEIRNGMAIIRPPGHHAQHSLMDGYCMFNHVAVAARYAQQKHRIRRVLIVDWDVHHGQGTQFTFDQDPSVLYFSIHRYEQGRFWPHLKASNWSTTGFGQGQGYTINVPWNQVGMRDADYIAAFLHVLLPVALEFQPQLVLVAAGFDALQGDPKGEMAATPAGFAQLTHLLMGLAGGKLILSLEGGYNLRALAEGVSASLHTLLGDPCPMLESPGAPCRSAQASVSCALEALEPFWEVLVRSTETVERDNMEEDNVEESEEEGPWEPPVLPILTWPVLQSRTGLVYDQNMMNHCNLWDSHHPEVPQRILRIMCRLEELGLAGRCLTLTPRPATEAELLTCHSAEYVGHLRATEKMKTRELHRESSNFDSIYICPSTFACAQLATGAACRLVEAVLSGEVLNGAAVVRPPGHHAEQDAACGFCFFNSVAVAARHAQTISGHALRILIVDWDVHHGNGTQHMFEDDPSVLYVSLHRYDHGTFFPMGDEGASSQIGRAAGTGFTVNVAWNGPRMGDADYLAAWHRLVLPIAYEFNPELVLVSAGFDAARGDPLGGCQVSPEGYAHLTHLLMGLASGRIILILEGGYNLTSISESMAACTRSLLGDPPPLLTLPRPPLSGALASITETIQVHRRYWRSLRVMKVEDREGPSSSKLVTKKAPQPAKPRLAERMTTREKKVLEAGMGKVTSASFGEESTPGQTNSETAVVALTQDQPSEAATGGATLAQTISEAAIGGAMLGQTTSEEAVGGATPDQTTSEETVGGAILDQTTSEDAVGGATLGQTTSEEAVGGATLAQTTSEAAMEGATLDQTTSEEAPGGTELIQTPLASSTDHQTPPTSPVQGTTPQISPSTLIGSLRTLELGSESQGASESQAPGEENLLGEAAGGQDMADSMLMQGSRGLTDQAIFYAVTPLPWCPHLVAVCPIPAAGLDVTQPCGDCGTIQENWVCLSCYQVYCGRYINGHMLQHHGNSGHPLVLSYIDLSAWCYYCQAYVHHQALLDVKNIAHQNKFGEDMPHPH
# HFF = assay: Cytotoxicity against HFF; format: cell-based; details: Homo sapiens
# [8] = molecular target: DNA (cytosine-5)-methyltransferase 3A (Homo sapiens, UniProt Q9Y6K1); assay: Inhibition of recombinant human DNMT3a C-terminal catalytic domain (623 to 908 residues) using 5'-biotinylated/3'-FAM-oligonucleotide as substrate measured after 1 hr in presence of Adomet by fluorescence assay
# [9] = molecular target: DNA (cytosine-5)-methyltransferase 1 (Homo sapiens, UniProt P26358); assay: Inhibition of recombinant human DNMT1 using biotinylated DNA duplex as substrate measured after 2 hrs in presence of Adomet/[methyl-3H]Adomet by topcount method
# Sequence of DNA (cytosine-5)-methyltransferase 1 (P26358 whole entry): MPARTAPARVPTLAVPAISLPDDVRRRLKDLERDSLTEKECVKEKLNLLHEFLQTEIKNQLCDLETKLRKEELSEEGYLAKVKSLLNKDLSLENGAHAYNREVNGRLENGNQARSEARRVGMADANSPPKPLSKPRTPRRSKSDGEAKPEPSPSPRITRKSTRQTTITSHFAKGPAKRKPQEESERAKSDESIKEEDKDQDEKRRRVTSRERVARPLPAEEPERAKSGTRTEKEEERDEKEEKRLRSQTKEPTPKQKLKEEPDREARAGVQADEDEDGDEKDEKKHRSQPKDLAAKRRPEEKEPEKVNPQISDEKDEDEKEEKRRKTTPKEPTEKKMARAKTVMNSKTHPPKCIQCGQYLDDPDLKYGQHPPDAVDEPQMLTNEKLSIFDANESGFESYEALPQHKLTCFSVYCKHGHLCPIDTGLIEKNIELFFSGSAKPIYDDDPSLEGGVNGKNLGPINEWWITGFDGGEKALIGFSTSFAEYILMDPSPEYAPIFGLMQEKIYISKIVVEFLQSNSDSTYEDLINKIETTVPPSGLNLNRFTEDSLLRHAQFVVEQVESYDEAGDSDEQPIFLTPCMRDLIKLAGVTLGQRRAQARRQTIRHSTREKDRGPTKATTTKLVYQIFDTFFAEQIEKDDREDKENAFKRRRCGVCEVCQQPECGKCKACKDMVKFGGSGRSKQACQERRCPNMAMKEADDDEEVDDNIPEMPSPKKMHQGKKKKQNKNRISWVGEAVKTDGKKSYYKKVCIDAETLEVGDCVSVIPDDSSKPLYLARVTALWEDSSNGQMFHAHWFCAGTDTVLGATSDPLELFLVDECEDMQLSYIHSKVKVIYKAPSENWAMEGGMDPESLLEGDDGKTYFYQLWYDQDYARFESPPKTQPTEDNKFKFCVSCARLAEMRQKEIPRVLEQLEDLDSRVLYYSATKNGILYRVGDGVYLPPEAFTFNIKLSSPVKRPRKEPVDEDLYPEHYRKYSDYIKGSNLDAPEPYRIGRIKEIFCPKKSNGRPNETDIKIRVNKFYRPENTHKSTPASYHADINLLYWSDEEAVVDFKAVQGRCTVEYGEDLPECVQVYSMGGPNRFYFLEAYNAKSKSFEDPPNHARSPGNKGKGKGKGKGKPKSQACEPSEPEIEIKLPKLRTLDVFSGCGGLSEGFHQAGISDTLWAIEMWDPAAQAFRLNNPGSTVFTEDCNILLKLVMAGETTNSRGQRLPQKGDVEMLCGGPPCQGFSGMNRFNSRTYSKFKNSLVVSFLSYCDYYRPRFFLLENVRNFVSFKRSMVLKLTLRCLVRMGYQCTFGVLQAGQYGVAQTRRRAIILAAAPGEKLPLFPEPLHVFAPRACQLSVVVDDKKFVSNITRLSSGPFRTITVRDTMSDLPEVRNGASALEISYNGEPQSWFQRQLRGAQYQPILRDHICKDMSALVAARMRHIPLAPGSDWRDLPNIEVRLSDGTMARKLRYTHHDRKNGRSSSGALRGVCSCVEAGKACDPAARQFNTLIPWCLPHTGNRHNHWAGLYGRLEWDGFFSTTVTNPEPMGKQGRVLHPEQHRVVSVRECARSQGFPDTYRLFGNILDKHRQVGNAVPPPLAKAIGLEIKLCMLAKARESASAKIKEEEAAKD
# Sequence of DNA (cytosine-5)-methyltransferase 3A (Q9Y6K1 whole entry, looked up, the tested form may be a part): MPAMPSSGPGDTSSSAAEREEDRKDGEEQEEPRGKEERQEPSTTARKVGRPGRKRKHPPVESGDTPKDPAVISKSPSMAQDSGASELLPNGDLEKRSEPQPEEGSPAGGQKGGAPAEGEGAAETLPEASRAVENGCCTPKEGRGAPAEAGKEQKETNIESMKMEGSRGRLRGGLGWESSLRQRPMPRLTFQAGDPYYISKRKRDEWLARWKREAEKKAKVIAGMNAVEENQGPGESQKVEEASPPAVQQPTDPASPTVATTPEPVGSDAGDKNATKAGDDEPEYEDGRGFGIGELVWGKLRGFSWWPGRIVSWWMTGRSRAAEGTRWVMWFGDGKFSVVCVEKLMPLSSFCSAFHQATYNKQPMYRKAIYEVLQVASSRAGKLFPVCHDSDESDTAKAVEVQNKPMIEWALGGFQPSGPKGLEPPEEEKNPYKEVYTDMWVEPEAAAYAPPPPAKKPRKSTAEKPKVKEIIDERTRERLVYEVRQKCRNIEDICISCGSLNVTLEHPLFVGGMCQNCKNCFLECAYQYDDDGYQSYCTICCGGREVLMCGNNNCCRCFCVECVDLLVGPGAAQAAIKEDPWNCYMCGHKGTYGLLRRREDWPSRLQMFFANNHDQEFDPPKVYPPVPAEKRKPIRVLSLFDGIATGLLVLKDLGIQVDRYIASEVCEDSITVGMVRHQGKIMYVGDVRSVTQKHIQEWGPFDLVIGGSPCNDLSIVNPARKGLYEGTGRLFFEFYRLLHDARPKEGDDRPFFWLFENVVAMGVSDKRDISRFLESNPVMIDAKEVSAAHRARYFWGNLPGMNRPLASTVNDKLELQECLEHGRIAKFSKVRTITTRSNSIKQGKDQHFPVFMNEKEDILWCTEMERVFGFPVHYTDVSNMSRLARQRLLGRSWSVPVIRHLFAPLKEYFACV
# Sequence of Histone deacetylase 1 (Q13547 whole entry): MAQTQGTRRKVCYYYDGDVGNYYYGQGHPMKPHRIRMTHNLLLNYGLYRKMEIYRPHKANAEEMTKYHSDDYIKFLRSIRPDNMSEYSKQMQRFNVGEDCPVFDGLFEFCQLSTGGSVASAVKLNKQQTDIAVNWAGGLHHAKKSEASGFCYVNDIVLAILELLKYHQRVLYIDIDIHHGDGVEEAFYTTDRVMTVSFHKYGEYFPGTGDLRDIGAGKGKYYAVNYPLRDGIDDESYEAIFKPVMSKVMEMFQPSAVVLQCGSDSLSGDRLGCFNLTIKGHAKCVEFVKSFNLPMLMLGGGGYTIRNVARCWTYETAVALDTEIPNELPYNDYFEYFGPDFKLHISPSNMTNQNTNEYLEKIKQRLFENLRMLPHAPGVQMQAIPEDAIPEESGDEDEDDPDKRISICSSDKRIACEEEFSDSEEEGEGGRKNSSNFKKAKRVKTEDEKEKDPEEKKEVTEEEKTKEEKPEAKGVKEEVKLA
# Sequence of Histone deacetylase 4 (P56524 whole entry): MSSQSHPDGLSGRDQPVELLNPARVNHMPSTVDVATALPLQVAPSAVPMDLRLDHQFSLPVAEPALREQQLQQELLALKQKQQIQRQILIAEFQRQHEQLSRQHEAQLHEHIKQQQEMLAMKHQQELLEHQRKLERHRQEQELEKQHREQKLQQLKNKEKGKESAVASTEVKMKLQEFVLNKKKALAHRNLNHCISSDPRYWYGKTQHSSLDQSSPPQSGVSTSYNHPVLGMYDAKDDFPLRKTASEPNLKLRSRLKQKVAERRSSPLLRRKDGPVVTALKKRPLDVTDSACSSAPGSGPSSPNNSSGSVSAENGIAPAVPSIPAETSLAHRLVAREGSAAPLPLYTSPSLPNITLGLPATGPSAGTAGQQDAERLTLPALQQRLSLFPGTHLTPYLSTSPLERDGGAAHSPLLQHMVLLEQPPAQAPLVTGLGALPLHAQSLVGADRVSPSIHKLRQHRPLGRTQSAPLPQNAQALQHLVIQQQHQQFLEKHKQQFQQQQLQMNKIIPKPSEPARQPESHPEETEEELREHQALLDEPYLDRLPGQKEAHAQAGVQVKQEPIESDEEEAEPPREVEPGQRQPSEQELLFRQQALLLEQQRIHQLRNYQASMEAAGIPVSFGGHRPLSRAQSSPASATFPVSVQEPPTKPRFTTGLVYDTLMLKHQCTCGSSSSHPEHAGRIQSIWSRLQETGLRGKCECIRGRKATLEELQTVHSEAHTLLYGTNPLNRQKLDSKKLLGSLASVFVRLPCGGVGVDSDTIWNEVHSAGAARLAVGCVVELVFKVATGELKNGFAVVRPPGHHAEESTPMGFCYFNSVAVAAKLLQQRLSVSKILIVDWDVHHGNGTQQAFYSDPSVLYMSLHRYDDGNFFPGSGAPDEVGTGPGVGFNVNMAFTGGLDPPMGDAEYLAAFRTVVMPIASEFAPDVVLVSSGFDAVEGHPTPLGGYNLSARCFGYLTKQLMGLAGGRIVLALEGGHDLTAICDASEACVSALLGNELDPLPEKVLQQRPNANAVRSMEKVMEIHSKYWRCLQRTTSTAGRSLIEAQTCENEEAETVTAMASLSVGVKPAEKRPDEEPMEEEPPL
SMILES,inhibition at 10 µM (Plasmodium falciparum [3]) [%],IC50 (Plasmodium falciparum [6]) [µM],also measured
O=C(/C=C/c1ccc(NC(=O)Cc2cccc3ccccc23)cn1)NO,96.8 to 97.9,0.0102 to 0.0211,selectivity ratio [1]: 9; IC50 (Plasmodium falciparum [2]): 0.0135 µM; IC50 (Histone deacetylase 4): 2.7 µM; IC50 (Plasmodium falciparum [4]): 0.0153 µM; IC50 [5]: 0.12 µM; IC50 (Histone deacetylase 1): 0.1 µM; IC50 [7]: 0.015 µM; IC50 (HFF): > 10 µM
NC1CC1c1ccc(NC(=O)c2ccc(-c3ccccc3)cc2)cc1 (stereo not drawn),97.5,> 1,–
O=C(CCCCCSc1nc(-c2ccc3ccccc3c2)cc(=O)[nH]1)NO,97.4,0.0794,IC50 (Histone deacetylase 4): > 50 µM; IC50 (Histone deacetylase 1): 1 µM; IC50 [7]: 0.017 µM
Cc1cc(C)c(CNC(=O)c2cnn(-c3ccccc3)c2C)c(=O)[nH]1,14.7,–,–
CC1=NN(c2ccc(C(=O)O)cc2)C(=O)/C1=C\c1ccc(-c2cc(C)c(C)cc2[N+](=O)[O-])o1,12.8,–,–
c1ccc(N2CCN(c3nc(NC4CCN(Cc5ccc6ccccc6c5)CC4)c4ccccc4n3)CC2)cc1,100,0.138,EC50 [8]: 2.4 µM; EC50 [9]: > 100 µM
CCCCCCCCCCCCCCC=C(C(=O)OCC)C(=O)OCC,92.7,> 1,–
COc1cc2nc(N3CCN(c4ccccc4)CC3)nc(NC3CCN(Cc4ccccc4)CC3)c2cc1OC,100,0.0378,EC50 [8]: 5.4 µM; EC50 [9]: > 100 µM
O=C(/C=C/c1ccc(Cc2nnc(Cc3cccc4ccccc34)o2)cc1)NO,98,0.244,–
O=C1/C(=C/c2ccc(O)c(Br)c2)CSC/C1=C\c1ccc(O)c(Br)c1,99.5,0.952,–
CC(C(=O)Nc1cccc(/N=C/c2c(O)ccc3ccccc23)c1)c1ccccc1 (stereo not drawn) [SALERMIDE],72.3,> 1,–
O=C(/C=C/c1ccccc1CSc1nc(O)cc(-c2ccccc2)n1)NO,2.8,–,–
O=C(O)c1ccc(O)c2ncccc12,25.4,–,–
BrCCCc1nc(-c2ccc(Br)cc2)no1,18.7,–,–
O=c1[nH]c(SCCN2CCN(c3ccccn3)CC2)nc2ccccc12,2,–,–
NC1CC1c1ccc(NC(=O)c2ccc(O)c3ncccc23)cc1 (stereo not drawn),98.9 to 100,0.776 to 1,–
COc1ccc2c(NC3CCN(Cc4ccccc4)CC3)nc(N3CCN(c4ccccc4)CC3)nc2c1,100,0.083,EC50 [8]: 4.6 µM; EC50 [9]: > 100 µM
NC1CC1c1ccc(NC(=O)CCCNC(=O)c2ccc(O)c3ncccc23)cc1 (stereo not drawn),45.3,–,–
NC1CC1c1ccc(NC(=O)CCCCCNC(=O)c2ccc(O)c3ncccc23)cc1 (stereo not drawn),96.7,> 1,–
c1ccc(CCN2CCC(Nc3nc(N4CCN(c5ccccc5)CC4)nc4ccccc34)CC2)cc1,100,0.0989,EC50 [8]: 5.4 µM; EC50 [9]: > 100 µM
CC(C)N(CCCNC(=O)Nc1ccc(C(C)(C)C)cc1)C[C@H]1O[C@@H](n2cnc3c(N)ncnc32)[C@H](O)[C@@H]1O,9.7,–,–
